# Biological target: T1, human Endothelial Differentiation Gene 1 (EDG1) (Homo sapiens, UniProt P21453)
# T1 construct: TEV protease site; Gal4-VP16 transcription factor; expressed in transfected cells; host or cells: EDG1-bla/U2OS (Tango GPCR-bla U2OS parental cell line)
# Experiment: S1P1 Tango assay - 384 well format
# Type: cell-based
# Conditions: EDG1-bla/U2OS cells, agonist
# Protocol: S1P1 Tango assay—384 Well Format
# Recombinant EDG1-bla/U2OS cells (contain the human Endothelial Differentiation Gene 1 (EDG1) linked to a TEV protease site and a Gal4-VP16 transcription factor stably integrated into the Tango GPCR-bla U2OS parental cell line) were harvested from growth medium and passaged into assay medium (Invitrogen Freestyle Expression Medium). The cells were starved for 24 hours at 37° C., 5% CO2, harvested and resuspended in assay medium at a density of ˜200,000 cells/ml. All test compounds were dissolved in DMSO at a concentration of 10 mM and were prepared in 100% DMSO to provide 10 point dose response curves. Test compounds prepared by Bravo (Velocity11) were added to wells in columns 2-11 and 13-22; DMSO was added to wells in columns 12 and 23 as unstimulated controls and assay medium was added to wells in columns 1 and 24 as cell-free controls. An S1P1 agonist was added to wells in row 2, columns 2-11 as stimulated controls and test compounds were added to wells in row 2, columns 13-22 and rows 3-15, columns 2-11/13-22 (row 1 and 16 were empty and not used). Compounds in solution were added to the assay plate (Greiner 781090) using an Echo (Labcyte) dose-response program (50 nl/well). The unstimulated and cell-free controls were loaded with 50 nl/well pure DMSO to ensure that the DMSO concentration was constant across the plate for all assays.
# 50 μl of the cell suspension was added to each well in columns 2-23 of the plate (˜10,000 cells per well). 50 μl of assay medium was added to each well in the cell-free controls (columns 1 and 24). The cells were incubated overnight at 37° C./5% CO2.
# 10 μl of 6× substrate mixture (LiveBLAzer™-FRET B/G substrate (CCF4-AM) Cat #K1096 from Invitrogen, Inc.) was added to each well using Bravo and the plates incubated at room temperature for 2 h in the dark. The plate was finally read on EnVision using one excitation channel (409 nm) and two emission channels (460 nm and 530 nm).
# The blue/green emission ratio (460 nm/530 nm) was calculated for each well, by dividing the background-subtracted Blue emission values by the background-subtracted Green emission values. The dose response curve is based on sigmoidal dose-response model. All ratio data was normalized based upon the maximum emission ratio of positive control and minimum emission ratio of negative control (DMSO) on each plate. The intrinsic activity (IA) of each compound would be the normalized percentage of its maximum response after curve fitting.
# T1 sequence (P21453 whole entry, the tested form may be a part): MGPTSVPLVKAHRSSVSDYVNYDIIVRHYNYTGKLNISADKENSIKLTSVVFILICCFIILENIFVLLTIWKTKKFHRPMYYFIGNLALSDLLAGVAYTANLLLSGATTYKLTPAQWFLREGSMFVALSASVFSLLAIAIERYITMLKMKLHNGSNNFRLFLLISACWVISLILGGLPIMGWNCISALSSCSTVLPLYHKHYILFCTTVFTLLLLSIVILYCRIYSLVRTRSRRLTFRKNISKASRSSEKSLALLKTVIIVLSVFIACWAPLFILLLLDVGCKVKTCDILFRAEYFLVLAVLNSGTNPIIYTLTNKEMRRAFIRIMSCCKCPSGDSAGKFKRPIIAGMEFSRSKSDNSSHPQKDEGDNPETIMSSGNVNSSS
row,EC50,SMILES
1,≤ 1 nM,"COc1c(CCC(=O)O)cc(F)cc1-c1noc(-c2ccc(OC(C)C)c(C#N)c2)n1 [Example 30, 3-[3-(5-{3-cyano-4-[(1-methylethyl)oxy]phenyl}-1,2,4-oxadiazol-3-yl)-5-fluoro-2-(methyloxy)phenyl]propanoic acid]"
2,≤ 1 nM,"COc1c(CCCC(=O)O)cc(F)cc1-c1noc(-c2ccc(OC(C)C)c(C#N)c2)n1 [Example 31, 4-[3-(5-{3-cyano-4-[(1-methylethyl)oxy]phenyl}-1,2,4-oxadiazol-3-yl)-5-fluoro-2-(methyloxy)phenyl]butanoic acid]"
3,≤ 10 nM,"COc1c(CCCC(=O)O)cc(F)cc1-c1noc(-c2cnc(OC(C)C)c(Cl)c2)n1 [Example 32, 4-[3-(5-{5-chloro-6-[(1-methylethyl)oxy]-3-pyridinyl}-1,2,4-oxadiazol-3-yl)-5-fluoro-2-(methyloxy)phenyl]butanoic acid]"
4,≤ 100 nM,"COc1c(CCC(=O)O)cc(F)cc1-c1noc(-c2cnc(OC(C)C)c(Cl)c2)n1 [Example 33, 3-[3-(5-{5-chloro-6-[(1-methylethyl)oxy]-3-pyridinyl}-1,2,4-oxadiazol-3-yl)-5-fluoro-2-(methyloxy)phenyl]propanoic acid]"
5,≤ 10 nM,"COc1c(CCC(=O)O)cc(F)cc1-c1noc(-c2ccc(OC(C)C)c(Cl)c2)n1 [Example 34, 3-[3-(5-{3-chloro-4-[(1-methylethyl)oxy]phenyl}-1,2,4-oxadiazol-3-yl)-5-fluoro-2-(methyloxy)phenyl]propanoic acid]"
6,≤ 1 nM,"COc1c(CCCC(=O)O)cc(F)cc1-c1noc(-c2ccc(OC(C)C)c(Cl)c2)n1 [Example 35, 4-[3-(5-{3-chloro-4-[(1-methylethyl)oxy]phenyl}-1,2,4-oxadiazol-3-yl)-5-fluoro-2-(methyloxy)phenyl]butanoic acid]"
7,≤ 10 nM,"CCCc1c(CCCC(=O)O)cccc1-c1noc(-c2ccc(OC(C)C)c(Cl)c2)n1 [Example 36, 4-[3-(5-{3-chloro-4-[(1-methylethyl)oxy]phenyl}-1,2,4-oxadiazol-3-yl)-2-propylphenyl]butanoic acid]"
8,≤ 10 nM,"CCCc1c(CCCC(=O)O)cccc1-c1noc(-c2ccc(OC(C)C)c(C#N)c2)n1 [Example 37, 4-[3-(5-{3-cyano-4-[(1-methylethyl)oxy]phenyl}-1,2,4-oxadiazol-3-yl)-2-propylphenyl]butanoic acid]"
9,≤ 10 nM,"CCc1c(OCCCC(=O)O)cccc1-c1noc(-c2ccc(OC(C)C)c(C#N)c2)n1 [Example 38, 4-{[3-(5-{3-cyano-4-[(1-methylethyl)oxy]phenyl}-1,2,4-oxadiazol-3-yl)-2-ethylphenyl]oxy}butanoic acid]"
10,≤ 1 nM,"CCc1c(OCCCC(=O)O)cccc1-c1noc(-c2ccc(OC(C)C)c(Cl)c2)n1 [Example 39, 4-{[3-(5-{3-chloro-4-[(1-methylethyl)oxy]phenyl}-1,2,4-oxadiazol-3-yl)-2-ethylphenyl]oxy}butanoic acid]"
11,≤ 10 nM,"CCc1c(OCC(=O)O)cccc1-c1noc(-c2ccc(OC(C)C)c(C#N)c2)n1 [Example 40, {[3-(5-{3-cyano-4-[(1-methylethyl)oxy]phenyl}-1,2,4-oxadiazol-3-yl)-2-ethylphenyl]oxy}acetic acid]"
12,≤ 10 nM,"CCc1c(CCCC(=O)O)cccc1-c1nnc(-c2ccc(OC(C)C)c(C#N)c2)o1 [Example 41, 4-[3-(5-{3-cyano-4-[(1-methylethyl)oxy]phenyl}-1,3,4-oxadiazol-2-yl)-2-ethylphenyl]butanoic acid]"
13,≤ 10 nM,"CCc1c(CNCCC(=O)O)cccc1-c1nsc(-c2ccc(OC(C)C)c(C#N)c2)n1 [Example 48, N-{[3-(5-{3-cyano-4-[(1-methylethyl)oxy]phenyl}-1,2,4-thiadiazol-3-yl)-2-ethylphenyl]methyl}-b-alanine]"
14,≤ 1 nM,"CCc1c(CCN(C)CC(=O)O)cccc1-c1nsc(-c2ccc(OC(C)C)c(Cl)c2)n1 [Example 49, N-{2-[3-(5-{3-chloro-4-[(1-methylethyl)oxy]phenyl}-1,2,4-thiadiazol-3-yl)-2-ethylphenyl]ethyl}-N-methylglycine]"
15,≤ 10 nM,"CCc1c(CCCC(=O)O)cccc1-c1cnc(-c2ccc(OC(C)C)c(C#N)c2)s1 [Example 50, 4-[3-(2-{3-cyano-4-[(1-methylethyl)oxy]phenyl}-1,3-thiazol-5-yl)-2-ethylphenyl]butanoic acid]"
16,≤ 10 nM,"COc1c(CCCC(=O)O)cc(F)cc1-c1cnc(-c2ccc(OC(C)C)c(C#N)c2)s1 [Example 51, 4-[3-(2-{3-cyano-4-[(1-methylethyl)oxy]phenyl}-1,3-thiazol-5-yl)-5-fluoro-2-(methyloxy)phenyl]butanoic acid]"
17,≤ 10 nM,"CCc1c(CCCC(=O)O)cccc1-c1cnc(-c2ccc(OC(C)C)c(Cl)c2)s1 [Example 52, 4-[3-(2-{3-chloro-4-[(1-methylethyl)oxy]phenyl}-1,3-thiazol-5-yl)-2-ethylphenyl]butanoic acid]"
18,≤ 10 nM,"CCc1c(CCN(C)CC(=O)O)cccc1-c1cnc(-c2ccc(OC(C)C)c(C#N)c2)s1 [Example 53, N-{2-[3-(2-{3-cyano-4-[(1-methylethyl)oxy]phenyl}-1,3-thiazol-5-yl)-2-ethylphenyl]ethyl}-N-methylglycine]"
19,≤ 1000 nM,"CCc1c(CN(C)CC(=O)O)cccc1-c1cnc(-c2ccc(OC(C)C)c(Cl)c2)s1 [Example 54, N-{[3-(2-{3-chloro-4-[(1-methylethyl)oxy]phenyl}-1,3-thiazol-5-yl)-2-ethylphenyl]methyl}-N-methylglycine]"
20,≤ 100 nM,"CCc1c(CN(C)CC(=O)O)cccc1-c1cnc(-c2ccc(OC(C)C)c(C#N)c2)s1 [Example 55, N-{[3-(2-{3-cyano-4-[(1-methylethyl)oxy]phenyl}-1,3-thiazol-5-yl)-2-ethylphenyl]methyl}-N-methylglycine]"
21,≤ 10 nM,"CCc1c(CCN(C)CC(=O)O)cccc1-c1cnc(-c2ccc(OC(C)C)c(Cl)c2)s1 [Example 56, N-{2-[3-(2-{3-chloro-4-[(1-methylethyl)oxy]phenyl}-1,3-thiazol-5-yl)-2-ethylphenyl]ethyl}-N-methylglycine]"
22,≤ 100 nM,"CCc1c(CN(C)CCC(=O)O)cccc1-c1cnc(-c2ccc(OC(C)C)c(C#N)c2)s1 [Example 57, N-{[3-(2-{3-cyano-4-[(1-methylethyl)oxy]phenyl}-1,3-thiazol-5-yl)-2-ethylphenyl]methyl}-N-methyl-β-alanine]"
23,≤ 1000 nM,"CCc1c(-c2cnc(-c3ccc(OC(C)C)c(C#N)c3)s2)ccnc1CCCC(=O)O [Example 58, 4-[4-(2-{3-cyano-4-[(1-methylethyl)oxy]phenyl}-1,3-thiazol-5-yl)-3-ethyl-2-pyridinyl]butanoic acid]"
24,≤ 1 nM,"CCc1c(CCN(C)CCC(=O)O)cccc1-c1cnc(-c2ccc(OC(C)C)c(C#N)c2)s1 [Example 59, N-{2-[3-(2-{3-cyano-4-[(1-methylethyl)oxy]phenyl}-1,3-thiazol-5-yl)-2-ethylphenyl]ethyl}-N-methyl-b-alanine]"

# From patent US20120101134A1, “5-MEMBERED HETEROARYL DERIVATIVES USED AS SPHINGOSINE 1-PHOSPHATE RECEPTOR AGONISTS” (GLAXO GROUP LIMITED, priority 2009, published 2012)
